Source: BigSolDB 2.1

CC(=O)Nc1ccc([N+](=O)[O-])cc1
solubility (mole fraction)
Conditions | 278.15 K | 283.15 K | 288.15 K | 293.15 K | 298.15 K | 303.15 K | 308.15 K | 313.15 K | 318.15 K | 323.15 K
in 1,4-dioxane | – | – | 0.00627 | 0.00697 | 0.00787 | 0.00907 | 0.0107 | 0.0127 | 0.0151 | 0.0182
in DMF | 0.102 | 0.107 | 0.112 | 0.118 | 0.126 | 0.135 | 0.145 | 0.156 | 0.171 | 0.187
in NMP | 0.0745 | 0.0841 | 0.0984 | 0.111 | 0.126 | 0.144 | 0.163 | 0.184 | 0.21 | 0.244
in acetonitrile | 0.00235 | 0.00271 | 0.00325 | 0.00386 | 0.00456 | 0.00545 | 0.0065 | 0.00778 | 0.00923 | 0.011
in cyclohexane | – | 1.94e-06 | 2.71e-06 | 3.77e-06 | 5.18e-06 | 6.81e-06 | 8.98e-06 | 1.16e-05 | 1.49e-05 | 1.91e-05
in ethanol | 0.00182 | 0.00222 | 0.00265 | 0.00318 | 0.00377 | 0.00458 | 0.00542 | 0.00641 | 0.00772 | 0.00921
in ethyl acetate | 0.00357 | 0.00414 | 0.00481 | 0.00562 | 0.00682 | 0.00824 | 0.00993 | 0.0118 | 0.0144 | 0.0171
in ethylene glycol | 0.000807 | 0.000953 | 0.00114 | 0.00141 | 0.00171 | 0.00208 | 0.00246 | 0.00301 | 0.00367 | 0.00451
in isobutanol | 0.00132 | 0.00158 | 0.00193 | 0.00233 | 0.00284 | 0.00335 | 0.00405 | 0.00488 | 0.00602 | 0.00728
in isopropanol | 0.00166 | 0.00201 | 0.00241 | 0.00292 | 0.00348 | 0.00436 | 0.00515 | 0.0062 | 0.00736 | 0.00868
in methanol | 0.00147 | 0.00182 | 0.00215 | 0.00261 | 0.00312 | 0.00366 | 0.00441 | 0.00543 | 0.0065 | 0.00772
in n-butanol | 0.00225 | 0.0026 | 0.00308 | 0.0036 | 0.0043 | 0.00512 | 0.0062 | 0.0074 | 0.00894 | 0.0106
in n-heptanol | 0.00264 | 0.00303 | 0.00354 | 0.00417 | 0.00508 | 0.00621 | 0.00742 | 0.00911 | 0.0108 | 0.013
in n-propanol | 0.0021 | 0.00251 | 0.00297 | 0.00352 | 0.00418 | 0.00496 | 0.00595 | 0.00714 | 0.00856 | 0.0101
in water | 6.37e-06 | 7.72e-06 | 1.04e-05 | 1.34e-05 | 1.68e-05 | 2.23e-05 | 2.89e-05 | 3.67e-05 | 4.69e-05 | 6.01e-05
